Experiments:
[1] = test system: BMDM; test: Cytotoxicity against mouse Bone marrow macrophage at 10 uM measured after 72 hrs by MTT assay; type: toxicity, cell-based
[2] = test system: BMDM; test: Inhibition of osteoclastogenesis in C57BL/6J mouse Bone marrow macrophage cells assessed as inhibition of RANKL-stimulated osteoclast formation measured after 6 days by tartrate-resistant acid phosphatase (TRAP) staining assay; conditions: 144 h
[3] = biological target: T1, Peroxisome proliferator-activated receptor gamma (Homo sapiens, UniProt P37231); test: Antagonist activity at PPAR gamma LBD (203 to 476 residues) (unknown origin) expressed in HEK293T cells co-transfected with pCMV-GAL4-PPARgamma-LBD-SV40-Renilla-luciferase assessed as reduction of rosiglitazone induced PPAR-gamma activation incubated for 24 hrs by dural-luciferase reporter assay; type: cell-based
T1 sequence (P37231 whole entry): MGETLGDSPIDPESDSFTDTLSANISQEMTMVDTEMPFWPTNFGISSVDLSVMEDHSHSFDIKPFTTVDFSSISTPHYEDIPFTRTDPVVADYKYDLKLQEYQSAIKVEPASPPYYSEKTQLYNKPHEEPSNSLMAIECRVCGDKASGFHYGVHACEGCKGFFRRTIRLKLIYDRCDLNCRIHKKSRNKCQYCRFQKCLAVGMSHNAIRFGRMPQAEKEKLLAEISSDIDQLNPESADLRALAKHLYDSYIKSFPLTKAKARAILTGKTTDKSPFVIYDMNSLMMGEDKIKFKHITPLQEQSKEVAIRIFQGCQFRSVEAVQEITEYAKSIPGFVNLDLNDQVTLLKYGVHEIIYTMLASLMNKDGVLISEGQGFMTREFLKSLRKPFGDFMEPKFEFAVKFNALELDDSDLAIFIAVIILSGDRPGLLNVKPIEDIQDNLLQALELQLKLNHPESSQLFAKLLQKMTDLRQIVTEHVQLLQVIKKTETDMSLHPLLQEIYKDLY

[4] = test system: BMDM; test: cells; conditions: Mus musculus, 144 h, read-out: INH
Description: Inhibition of osteoclastogenesis in C57BL/6J mouse Bone marrow macrophage cells assessed as inhibition of RANKL-stimulated osteoclast formation at 10 uM measured after 6 days by tartrate-resistant acid phosphatase (TRAP) staining assay relative to control

Compound	Activity [1]	IC50 [2] [µM]	IC50 [3] [µM]	inhibition at 10 µM [4] [%]
C[C@@H]1C[C@H](O)[C@@]2(COC(=O)c3ccc(C(F)(F)F)cc3)C(=O)CCC[C@@H]2[C@@]1(C)CCC1=CC(=O)OC1	Non-Toxic			
C/C=C(\C)C(=O)OC[C@@]12[C@H](CCC[C@]1(O)CCl)[C@@](C)(C[C@H](O)C1=CC(=O)OC1)[C@H](C)C[C@@H]2O	Non-Toxic	1.72	11.5	> 50
C/C=C(\C)C(=O)O[C@@H]1CC[C@](O)(CCl)[C@]2(COC(C)=O)[C@@H](OC(C)=O)C[C@@H](C)[C@](C)(C[C@H](O)C3=CC(=O)OC3)[C@@H]12 [AJUGAMARIN A1 CHLOROHYDRIN]	Non-Toxic			
C/C=C(\C)C(=O)O[C@@H]1CC[C@]2(CO2)[C@@]2(COC(C)=O)[C@H]1[C@@](C)(C[C@H](OC(C)=O)C1=CC(=O)OC1)[C@H](C)C[C@@H]2O	Non-Toxic			
C/C=C(\C)C(=O)O[C@@H](C[C@@]1(C)[C@H](C)C[C@H](OC(C)=O)[C@]2(COC(C)=O)[C@@H]1[C@H](O)CC[C@]21CO1)C1=CC(=O)OC1	Non-Toxic	4.68	19.5	> 50
COC(=O)[C@@H]1CCC[C@@H]2[C@@](C)(C[C@@H]3OC(=O)C=C3CO)[C@H](C)C[C@H](O)[C@]21C	Non-Toxic			
CCC(C)C(=O)O[C@@H](C[C@@]1(C)[C@H](C)C[C@H](O)[C@]2(C)[C@@H]1CCC[C@H]2C(=O)OC)C1=CC(=O)OC1 (stereo partly specified)	Non-Toxic	1.23	13	> 50
COC(=O)[C@@H]1CCC[C@@H]2[C@@](C)(C[C@H](O)C3=CC(=O)OC3)[C@H](C)C[C@H](O)[C@]21C	Non-Toxic			
C[C@@H]1C[C@H](O)[C@@]2(COC(=O)c3ccc(N(C)C)cc3)C(=O)CCC[C@@H]2[C@@]1(C)CCC1=CC(=O)OC1	Non-Toxic	0.31		
C/C=C(\C)C(=O)O[C@@H](C[C@@]1(C)[C@H](C)C[C@H](OC(C)=O)[C@]2(COC(C)=O)[C@@H]1[C@H](OC(C)=O)CC[C@]21CO1)C1=CC(=O)OC1 [AJUGANIPPONIN A]	Non-Toxic		11.6	
O=C(Nc1ccncc1)c1cc([N+](=O)[O-])ccc1Cl		0.067		
CC(=O)OC[C@@]12[C@@H](OC(C)=O)C[C@@H](C)[C@](C)(C[C@H](O)C3=CC(=O)OC3)[C@H]1CCC[C@]21CO1 [AJUGALIDE C]	Non-Toxic			
C/C=C(\C)C(=O)O[C@@H]1CC[C@]2(CO2)[C@]2(COC(C)=O)[C@@H](OC(C)=O)C[C@@H](C)[C@](C)(C[C@H](OC(=O)C(C)CC)C3=CC(=O)OC3)[C@@H]12 (stereo partly specified)	Non-Toxic			
CC(=O)OC[C@@]12[C@@H](OC(C)=O)C[C@@H](C)[C@](C)(CCC3=CC(=O)OC3)[C@H]1CCC[C@]21CO1 [AJUGARIN I]	Non-Toxic	3.71	12	> 50
CC(=O)O[C@H]1C[C@@H](C)[C@](C)(CCC2=CC(=O)OC2)[C@H]2CCCC(=O)[C@]12CO	Non-Toxic	> 10	> 20	
CC(=O)OC[C@@]12[C@@H](OC(C)=O)C[C@@H](C)[C@](C)(C[C@H](OC(C)=O)C3=CC(=O)OC3)[C@H]1CCC[C@]21CO1	Non-Toxic	2.73	13.2	> 50
C[C@@H]1C[C@H](O)[C@@]2(COC(=O)/C=C/c3ccc(C(F)(F)F)cc3)C(=O)CCC[C@@H]2[C@@]1(C)CCC1=CC(=O)OC1	Non-Toxic			
COC(=O)[C@@H]1CCC[C@@H]2[C@@](C)(C[C@H](OC(=O)C(C)C)C3=CC(=O)OC3)[C@H](C)C[C@H](O)[C@]21C	Non-Toxic	1.79	12.5	> 50
C/C=C(\C)C(=O)OC[C@@]12[C@@H](OC(C)=O)C[C@@H](C)[C@](C)(CCC3=CC(=O)OC3)[C@H]1CCC[C@]2(O)CCl [AJUGACUMBIN A CHLOROHYDRIN]	Non-Toxic	1.11	10.2	> 50
COC(=O)[C@@H]1CC[C@@H](O)[C@@H]2[C@@](C)(C[C@H](O)C3=CC(=O)OC3)[C@H](C)C[C@H](O)[C@]21C	Non-Toxic			
CCC(C)C(=O)O[C@@H]1CC[C@]2(CO2)[C@]2(COC(C)=O)[C@@H](OC(C)=O)C[C@@H](C)[C@](C)(C[C@H](OC(C)=O)C3=CC(=O)OC3)[C@@H]12 (stereo partly specified)	Non-Toxic			
CC(=O)OC[C@@]12[C@@H](OC(C)=O)C[C@@H](C)[C@](C)(C[C@H](OC(C)=O)C3=CC(=O)OC3)[C@H]1[C@H](OC(C)=O)CC[C@]21CO1 [AJUGAPANTIN A]	Non-Toxic			

Compound	Activity [1]	IC50 [2] [µM]	IC50 [3] [µM]	inhibition at 10 µM [4] [%]
C/C=C(\C)C(=O)O[C@@H](C[C@@]1(C)[C@H](C)C[C@H](OC(C)=O)[C@]2(COC(C)=O)[C@@H]1[C@H](OC(=O)/C(C)=C/C)CC[C@]21CO1)C1=CC(=O)OC1 [AJUGATAKASIN A]	Non-Toxic			
C/C=C(\C)C(=O)OC[C@@]12[C@@H](OC(C)=O)C[C@@H](C)[C@](C)(CCC3=CC(=O)OC3)[C@H]1CCC[C@H]2C(=O)O	Non-Toxic			
C/C=C(\C)C(=O)O[C@@H]1CC[C@]2(CO2)[C@]2(COC(C)=O)[C@@H](OC(C)=O)C[C@@H](C)[C@](C)(C[C@H](O)C3=CC(=O)OC3)[C@@H]12 [AJUGAMARIN A1]	Non-Toxic			
C/C=C(\C)C(=O)O[C@@H]1CC[C@](O)(CCl)[C@]2(COC(C)=O)[C@@H](OC(C)=O)C[C@@H](C)[C@](C)(C/C=C(/C=O)CC(=O)OC)[C@@H]12	Non-Toxic	> 10	> 20	
NCCCC(O)(P(=O)(O)O)P(=O)(O)O [ALENDRONIC ACID]		4.22		> 50
C[C@@H]1C[C@H](O)[C@@]2(COC(=O)c3ccc(F)cc3)C(=O)CCC[C@@H]2[C@@]1(C)CCC1=CC(=O)OC1	Non-Toxic			
C/C=C(\C)C(=O)O[C@@H]1CC[C@]2(CO2)[C@]2(COC(C)=O)[C@@H](OC(C)=O)C[C@@H](C)[C@](C)(CC(=O)C3=CC(=O)OC3)[C@@H]12	Non-Toxic	> 10	> 20	
CCC(C)C(=O)O[C@@H]1CC[C@]2(CO2)[C@]2(COC(C)=O)[C@@H](OC(C)=O)C[C@@H](C)[C@](C)(C[C@H](O)C3=CC(=O)OC3)[C@@H]12 (stereo partly specified) [DIHYDROAJUGAMARIN]	Non-Toxic			
C/C=C(\C)C(=O)OC[C@@]12[C@H](CCC[C@]13CO3)[C@@](C)(CCC1=CC(=O)OC1)[C@H](C)C[C@@H]2O	Non-Toxic			
C[C@@H]1C[C@H](O)[C@@]23COC[C@@H]2CCC[C@@H]3[C@@]1(C)CCC1=CC(=O)OC1	Non-Toxic			
C/C=C(\C)C(=O)OC[C@]12C(=O)CCC[C@@H]1[C@@](C)(CCC1=CC(=O)OC1)[C@H](C)C[C@@H]2OC(C)=O	Non-Toxic			
C/C=C(\C)C(=O)OC[C@]12C(=O)CCC[C@@H]1[C@@](C)(CCC1=CC(=O)OC1)[C@H](C)CC2=O	Non-Toxic	2.71	13.3	
C/C=C(\C)C(=O)OC[C@@]12[C@@H](OC(C)=O)C[C@@H](C)[C@](C)(C[C@H](O)C3=CC(=O)OC3)[C@H]1CCC[C@]21CO1	Non-Toxic			
C/C=C(\C)C(=O)O[C@@H](C[C@@]1(C)[C@H](C)C[C@H](O)[C@]2(C)[C@@H]1CCC[C@H]2C(=O)OC)C1=CC(=O)OC1	Non-Toxic	1.42		> 50
C/C=C(\C)C(=O)OC[C@@]12[C@@H](OC(C)=O)C[C@@H](C)[C@](C)(CCC3=CC(=O)OC3)[C@H]1CCC[C@]2(O)COC(C)=O	Non-Toxic	6.12	> 20	
C/C=C(\C)C(=O)OC[C@@]12C(=O)C[C@@H](C)[C@](C)(CCC3=CC(=O)OC3)[C@H]1CCC[C@]2(O)CCl	Toxic			
C/C=C(\C)C(=O)O[C@@H]1CC[C@]2(CO2)[C@]2(COC(C)=O)[C@@H](OC(C)=O)C[C@@H](C)[C@](C)(C[C@H](OC(C)=O)C3=CC(=O)OC3)[C@@H]12 [AJUGAMARIN A2]	Non-Toxic			
C[C@@H]1C[C@H](O)[C@@]2(CO)C(=O)CCC[C@@H]2[C@@]1(C)CCC1=CC(=O)OC1	Non-Toxic	> 10	> 20	
C/C=C(\C)C(=O)OC[C@]12[C@H]3CCC[C@@]1(O)CO[C@@]2(O)C[C@H](C)[C@@]3(C)CCC1=CC(=O)OC1	Non-Toxic	1.04	8.18	
C/C=C(\C)C(=O)O[C@@H](C[C@@]1(C)[C@H](C)C[C@H](OC(C)=O)[C@]2(COC(C)=O)[C@@H]1CCC[C@]2(O)CCl)C1=CC(=O)OC1	Non-Toxic			
C[C@@H]1C[C@H](O)[C@@]2(COC(=O)/C=C/c3ccc(F)cc3)C(=O)CCC[C@@H]2[C@@]1(C)CCC1=CC(=O)OC1	Non-Toxic			
C/C=C(\C)C(=O)OC[C@@]12C(=O)C[C@@H](C)[C@](C)(CCC3=CC(=O)OC3)[C@H]1CCC[C@]21CO1	Non-Toxic	0.83	2.05	
